Test results as given in US7964531B2, “3-phenoxy-4-pyridazinol derivatives and herbicidal composition containing the same” (Mitsui Chemicals Agro, Inc., priority 2001, dated 2011).

Experiments:
Assay type in all cases: in vivo
Conditions in all cases: wettable powder applied 3 days after transplanting, judged after 25 days
Scirpus joncoides = assay: Test Example 1: herbicidal effects, paddy-field pot test
Experimental: (§1) A paddy soil was filled in 1/10,000 are pot, and seeds of barnyardgrass (Echinochloa oryzicola Vasing.), Scirpus joncoides and annual broad-leaved weeds (Lindernia spp., Rotala indica) which are awaken from dormancy were mixed at the surface layer of 1 cm. Also, tuber of Cyperus serotinus which is germinated was planted, and further seedlings of paddy-field rice at 2.2-leaf stage were transplanted, and they were grown under the flooded condition in a greenhouse. After 3 days from transplanting, a predetermined chemical dosage of the wettable powder prepared in accordance with Preparation example 1 was diluted in water, and the solution was applied to the pot and herbicidal effects and crop injury against transplanted paddy-field rice were judged after 25 days from the treatment. Also, 3-(2-allylphenoxy)-6-chloro-4-methoxypyridazine described in Chemical Pharmaceutical Bulletin, 1972, vol. 20, No. 10, pp. 2191-2203 was used as Comparative compound. Incidentally, herbicidal effects and crop injury against transplanted paddy-field rice were judged by the following judgment standard, and “-” in the table means no test was carried out.
(§2) Judgment Standard • 0: Growth inhibition rate; 0 to 10% • 1: Growth inhibition rate; 11 to 30% • 2: Growth inhibition rate; 31 to 50% • 3: Growth inhibition rate; 51 to 70% • 4: Growth inhibition rate; 71 to 90% • 5: Growth inhibition rate; 91 to 100%.

[1] = tested on: annual broad-leaved weeds (Lindernia spp., Rotala indica); assay: as above
Experimental: as §1, §2

[2] = tested on: barnyardgrass (Echinochloa oryzicola Vasing.); assay: as above
Experimental: as §1, §2

Cyperus serotinus = assay: as above
Experimental: as §1, §2

[3] = tested on: transplanted paddy-field rice; assay: Test Example 1: crop injury against transplanted paddy-field rice
Experimental: as §1, §2

## C=CCc1ccccc1Oc1nnc(Cl)cc1OC [Comparative compound, 3-(2-allylphenoxy)-6-chloro-4-methoxypyridazine, reference compound]
Scirpus joncoides; chemical dosage 25 g/a
  Herbicidal effects Scirpus joncoides: 0 (Growth inhibition rate; 0 to 10%)
[1]; chemical dosage 25 g/a
  Herbicidal effects Broad leaf: 1 (Growth inhibition rate; 11 to 30%)
[2]; chemical dosage 25 g/a
  Herbicidal effects Barnyard grass: 0 (Growth inhibition rate; 0 to 10%)
Cyperus serotinus; chemical dosage 25 g/a
  Herbicidal effects Cyperus serotinus: 0 (Growth inhibition rate; 0 to 10%)
[3]; chemical dosage 25 g/a
  Crop injury against transplanted rice: 0 (Growth inhibition rate; 0 to 10%)

## Oc1cc(Cl)nnc1Oc1cccc2c1C1CC1C2 (centres unmarked) [Example 14]
Scirpus joncoides; chemical dosage 10 g/a
  Herbicidal effects Scirpus joncoides: 4 (Growth inhibition rate; 71 to 90%)
[1]; chemical dosage 10 g/a
  Herbicidal effects Broad leaf: 5 (Growth inhibition rate; 91 to 100%)
[2]; chemical dosage 10 g/a
  Herbicidal effects Barnyard grass: 0 (Growth inhibition rate; 0 to 10%)
Cyperus serotinus; chemical dosage 10 g/a
  Herbicidal effects Cyperus serotinus: 5 (Growth inhibition rate; 91 to 100%)
[3]; chemical dosage 10 g/a
  Crop injury against transplanted rice: 0 (Growth inhibition rate; 0 to 10%)

## Oc1cc(Cl)nnc1Oc1cccc2c1CC1CC21 (centres unmarked) [Example 15]
[1]; chemical dosage 10 g/a
  Herbicidal effects Broad leaf: 5 (Growth inhibition rate; 91 to 100%)
[2]; chemical dosage 10 g/a
  Herbicidal effects Barnyard grass: 1 (Growth inhibition rate; 11 to 30%)
Cyperus serotinus; chemical dosage 10 g/a
  Herbicidal effects Cyperus serotinus: 5 (Growth inhibition rate; 91 to 100%)
[3]; chemical dosage 10 g/a
  Crop injury against transplanted rice: 0 (Growth inhibition rate; 0 to 10%)

## CC(C)c1cccc(Cl)c1Oc1nnc(Cl)cc1O [Example 18]
Scirpus joncoides; chemical dosage 12.5 g/a
  Herbicidal effects Scirpus joncoides: 3 (Growth inhibition rate; 51 to 70%)
Scirpus joncoides; chemical dosage 25 g/a
  Herbicidal effects Scirpus joncoides: 4 (Growth inhibition rate; 71 to 90%)
[1]; chemical dosage 12.5 g/a
  Herbicidal effects Broad leaf: 5 (Growth inhibition rate; 91 to 100%)
[1]; chemical dosage 25 g/a
  Herbicidal effects Broad leaf: 5 (Growth inhibition rate; 91 to 100%)
[2]; chemical dosage 12.5 g/a
  Herbicidal effects Barnyard grass: 0 (Growth inhibition rate; 0 to 10%)
[2]; chemical dosage 25 g/a
  Herbicidal effects Barnyard grass: 1 (Growth inhibition rate; 11 to 30%)
Cyperus serotinus; chemical dosage 12.5 g/a
  Herbicidal effects Cyperus serotinus: 5 (Growth inhibition rate; 91 to 100%)
Cyperus serotinus; chemical dosage 25 g/a
  Herbicidal effects Cyperus serotinus: 5 (Growth inhibition rate; 91 to 100%)
[3]; chemical dosage 12.5 g/a
  Crop injury against transplanted rice: 1 (Growth inhibition rate; 11 to 30%)
[3]; chemical dosage 25 g/a
  Crop injury against transplanted rice: 2 (Growth inhibition rate; 31 to 50%)

## CC(C)c1cccc(Br)c1Oc1nnc(Cl)cc1O [Example 19]
Scirpus joncoides; chemical dosage 12.5 g/a
  Herbicidal effects Scirpus joncoides: 4 (Growth inhibition rate; 71 to 90%)
Scirpus joncoides; chemical dosage 25 g/a
  Herbicidal effects Scirpus joncoides: 4 (Growth inhibition rate; 71 to 90%)
[1]; chemical dosage 12.5 g/a
  Herbicidal effects Broad leaf: 5 (Growth inhibition rate; 91 to 100%)
[1]; chemical dosage 25 g/a
  Herbicidal effects Broad leaf: 5 (Growth inhibition rate; 91 to 100%)
[2]; chemical dosage 12.5 g/a
  Herbicidal effects Barnyard grass: 0 (Growth inhibition rate; 0 to 10%)
[2]; chemical dosage 25 g/a
  Herbicidal effects Barnyard grass: 1 (Growth inhibition rate; 11 to 30%)
Cyperus serotinus; chemical dosage 12.5 g/a
  Herbicidal effects Cyperus serotinus: 5 (Growth inhibition rate; 91 to 100%)
Cyperus serotinus; chemical dosage 25 g/a
  Herbicidal effects Cyperus serotinus: 5 (Growth inhibition rate; 91 to 100%)
[3]; chemical dosage 12.5 g/a
  Crop injury against transplanted rice: 1 (Growth inhibition rate; 11 to 30%)
[3]; chemical dosage 25 g/a
  Crop injury against transplanted rice: 1 (Growth inhibition rate; 11 to 30%)

## Cc1cccc(C)c1Oc1nnc(Cl)cc1O [Example 21]
Scirpus joncoides; chemical dosage 10 g/a
  Herbicidal effects Scirpus joncoides: 5 (Growth inhibition rate; 91 to 100%)
[1]; chemical dosage 10 g/a
  Herbicidal effects Broad leaf: 5 (Growth inhibition rate; 91 to 100%)
[2]; chemical dosage 10 g/a
  Herbicidal effects Barnyard grass: 2 (Growth inhibition rate; 31 to 50%)
Cyperus serotinus; chemical dosage 10 g/a
  Herbicidal effects Cyperus serotinus: 5 (Growth inhibition rate; 91 to 100%)
[3]; chemical dosage 10 g/a
  Crop injury against transplanted rice: 0 (Growth inhibition rate; 0 to 10%)

## Cc1cccc(C(C)(C)C)c1Oc1nnc(Cl)cc1O [Example 22]
Scirpus joncoides; chemical dosage 12.5 g/a
  Herbicidal effects Scirpus joncoides: 2 (Growth inhibition rate; 31 to 50%)
Scirpus joncoides; chemical dosage 25 g/a
  Herbicidal effects Scirpus joncoides: 4 (Growth inhibition rate; 71 to 90%)
[1]; chemical dosage 12.5 g/a
  Herbicidal effects Broad leaf: 5 (Growth inhibition rate; 91 to 100%)
[1]; chemical dosage 25 g/a
  Herbicidal effects Broad leaf: 5 (Growth inhibition rate; 91 to 100%)
[2]; chemical dosage 12.5 g/a
  Herbicidal effects Barnyard grass: 1 (Growth inhibition rate; 11 to 30%)
[2]; chemical dosage 25 g/a
  Herbicidal effects Barnyard grass: 2 (Growth inhibition rate; 31 to 50%)
Cyperus serotinus; chemical dosage 12.5 g/a
  Herbicidal effects Cyperus serotinus: 3 (Growth inhibition rate; 51 to 70%)
Cyperus serotinus; chemical dosage 25 g/a
  Herbicidal effects Cyperus serotinus: 4 (Growth inhibition rate; 71 to 90%)
[3]; chemical dosage 12.5 g/a
  Crop injury against transplanted rice: 1 (Growth inhibition rate; 11 to 30%)
[3]; chemical dosage 25 g/a
  Crop injury against transplanted rice: 2 (Growth inhibition rate; 31 to 50%)

## O=S(=O)(Oc1cc(Cl)nnc1Oc1ccccc1C1CC1)C(F)(F)F [Example 26]
Scirpus joncoides; chemical dosage 10 g/a
  Herbicidal effects Scirpus joncoides: 5 (Growth inhibition rate; 91 to 100%)
Scirpus joncoides; chemical dosage 20 g/a
  Herbicidal effects Scirpus joncoides: 5 (Growth inhibition rate; 91 to 100%)
[1]; chemical dosage 10 g/a
  Herbicidal effects Broad leaf: 5 (Growth inhibition rate; 91 to 100%)
[1]; chemical dosage 20 g/a
  Herbicidal effects Broad leaf: 5 (Growth inhibition rate; 91 to 100%)
[2]; chemical dosage 10 g/a
  Herbicidal effects Barnyard grass: 4 (Growth inhibition rate; 71 to 90%)
[2]; chemical dosage 20 g/a
  Herbicidal effects Barnyard grass: 4 (Growth inhibition rate; 71 to 90%)
Cyperus serotinus; chemical dosage 10 g/a
  Herbicidal effects Cyperus serotinus: 5 (Growth inhibition rate; 91 to 100%)
Cyperus serotinus; chemical dosage 20 g/a
  Herbicidal effects Cyperus serotinus: 5 (Growth inhibition rate; 91 to 100%)
[3]; chemical dosage 10 g/a
  Crop injury against transplanted rice: 0 (Growth inhibition rate; 0 to 10%)
[3]; chemical dosage 20 g/a
  Crop injury against transplanted rice: 0 (Growth inhibition rate; 0 to 10%)

## Cc1ccc(Oc2nnc(Cl)cc2O)c(C2CC2)c1 [Example 202]
[1]; chemical dosage 10 g/a
  Herbicidal effects Broad leaf: 5 (Growth inhibition rate; 91 to 100%)
[2]; chemical dosage 10 g/a
  Herbicidal effects Barnyard grass: 2 (Growth inhibition rate; 31 to 50%)
Cyperus serotinus; chemical dosage 10 g/a
  Herbicidal effects Cyperus serotinus: 4 (Growth inhibition rate; 71 to 90%)
[3]; chemical dosage 10 g/a
  Crop injury against transplanted rice: 0 (Growth inhibition rate; 0 to 10%)

## CCc1ccc(C2CC2)c(Oc2nnc(Cl)cc2O)c1 [Example 219]
Scirpus joncoides; chemical dosage 10 g/a
  Herbicidal effects Scirpus joncoides: 5 (Growth inhibition rate; 91 to 100%)
Scirpus joncoides; chemical dosage 20 g/a
  Herbicidal effects Scirpus joncoides: 5 (Growth inhibition rate; 91 to 100%)
[1]; chemical dosage 10 g/a
  Herbicidal effects Broad leaf: 5 (Growth inhibition rate; 91 to 100%)
[1]; chemical dosage 20 g/a
  Herbicidal effects Broad leaf: 5 (Growth inhibition rate; 91 to 100%)
[2]; chemical dosage 10 g/a
  Herbicidal effects Barnyard grass: 3 (Growth inhibition rate; 51 to 70%)
[2]; chemical dosage 20 g/a
  Herbicidal effects Barnyard grass: 4 (Growth inhibition rate; 71 to 90%)
[3]; chemical dosage 10 g/a
  Crop injury against transplanted rice: 0 (Growth inhibition rate; 0 to 10%)
[3]; chemical dosage 20 g/a
  Crop injury against transplanted rice: 0 (Growth inhibition rate; 0 to 10%)

## Oc1cc(Cl)nnc1Oc1c(Br)cccc1Br [Example 248]
[1]; chemical dosage 5 g/a
  Herbicidal effects Broad leaf: 5 (Growth inhibition rate; 91 to 100%)
[1]; chemical dosage 10 g/a
  Herbicidal effects Broad leaf: 5 (Growth inhibition rate; 91 to 100%)
[2]; chemical dosage 5 g/a
  Herbicidal effects Barnyard grass: 1 (Growth inhibition rate; 11 to 30%)
[2]; chemical dosage 10 g/a
  Herbicidal effects Barnyard grass: 3 (Growth inhibition rate; 51 to 70%)
Cyperus serotinus; chemical dosage 5 g/a
  Herbicidal effects Cyperus serotinus: 5 (Growth inhibition rate; 91 to 100%)
Cyperus serotinus; chemical dosage 10 g/a
  Herbicidal effects Cyperus serotinus: 5 (Growth inhibition rate; 91 to 100%)
[3]; chemical dosage 5 g/a
  Crop injury against transplanted rice: 0 (Growth inhibition rate; 0 to 10%)
[3]; chemical dosage 10 g/a
  Crop injury against transplanted rice: 0 (Growth inhibition rate; 0 to 10%)

## CC(C)c1cccc(I)c1Oc1nnc(Cl)cc1O [Example 258]
[1]; chemical dosage 10 g/a
  Herbicidal effects Broad leaf: 5 (Growth inhibition rate; 91 to 100%)
[2]; chemical dosage 10 g/a
  Herbicidal effects Barnyard grass: 3 (Growth inhibition rate; 51 to 70%)
[3]; chemical dosage 10 g/a
  Crop injury against transplanted rice: 0 (Growth inhibition rate; 0 to 10%)

## CC(C)c1cccc(C(C)C)c1Oc1nnc(Cl)cc1O [Example 271]
Scirpus joncoides; chemical dosage 12.5 g/a
  Herbicidal effects Scirpus joncoides: 2 (Growth inhibition rate; 31 to 50%)
Scirpus joncoides; chemical dosage 25 g/a
  Herbicidal effects Scirpus joncoides: 4 (Growth inhibition rate; 71 to 90%)
[1]; chemical dosage 12.5 g/a
  Herbicidal effects Broad leaf: 5 (Growth inhibition rate; 91 to 100%)
[1]; chemical dosage 25 g/a
  Herbicidal effects Broad leaf: 5 (Growth inhibition rate; 91 to 100%)
[2]; chemical dosage 12.5 g/a
  Herbicidal effects Barnyard grass: 1 (Growth inhibition rate; 11 to 30%)
[2]; chemical dosage 25 g/a
  Herbicidal effects Barnyard grass: 2 (Growth inhibition rate; 31 to 50%)
Cyperus serotinus; chemical dosage 12.5 g/a
  Herbicidal effects Cyperus serotinus: 3 (Growth inhibition rate; 51 to 70%)
Cyperus serotinus; chemical dosage 25 g/a
  Herbicidal effects Cyperus serotinus: 4 (Growth inhibition rate; 71 to 90%)

## Oc1cc(Cl)nnc1Oc1c(F)cc(C2CC2)cc1C1CC1 [Example 313]
[1]; chemical dosage 20 g/a
  Herbicidal effects Broad leaf: 5 (Growth inhibition rate; 91 to 100%)
[2]; chemical dosage 20 g/a
  Herbicidal effects Barnyard grass: 1 (Growth inhibition rate; 11 to 30%)
[3]; chemical dosage 20 g/a
  Crop injury against transplanted rice: 0 (Growth inhibition rate; 0 to 10%)

## Cc1cc(C)c(Oc2nnc(Cl)cc2O)c(Br)c1 [Example 315]
[1]; chemical dosage 20 g/a
  Herbicidal effects Broad leaf: 5 (Growth inhibition rate; 91 to 100%)
[2]; chemical dosage 20 g/a
  Herbicidal effects Barnyard grass: 4 (Growth inhibition rate; 71 to 90%)
Cyperus serotinus; chemical dosage 20 g/a
  Herbicidal effects Cyperus serotinus: 5 (Growth inhibition rate; 91 to 100%)
[3]; chemical dosage 20 g/a
  Crop injury against transplanted rice: 0 (Growth inhibition rate; 0 to 10%)

## CCc1cc(I)cc(I)c1Oc1nnc(Cl)cc1O [Example 316]
[1]; chemical dosage 10 g/a
  Herbicidal effects Broad leaf: 5 (Growth inhibition rate; 91 to 100%)
[1]; chemical dosage 20 g/a
  Herbicidal effects Broad leaf: 5 (Growth inhibition rate; 91 to 100%)
[2]; chemical dosage 10 g/a
  Herbicidal effects Barnyard grass: 2 (Growth inhibition rate; 31 to 50%)
[2]; chemical dosage 20 g/a
  Herbicidal effects Barnyard grass: 3 (Growth inhibition rate; 51 to 70%)
[3]; chemical dosage 10 g/a
  Crop injury against transplanted rice: 0 (Growth inhibition rate; 0 to 10%)
[3]; chemical dosage 20 g/a
  Crop injury against transplanted rice: 0 (Growth inhibition rate; 0 to 10%)

## CN(C)C(=O)Oc1cc(Cl)nnc1Oc1ccccc1C1CC1 [Example 352]
Scirpus joncoides; chemical dosage 20 g/a
  Herbicidal effects Scirpus joncoides: 5 (Growth inhibition rate; 91 to 100%)
[1]; chemical dosage 20 g/a
  Herbicidal effects Broad leaf: 5 (Growth inhibition rate; 91 to 100%)
[2]; chemical dosage 20 g/a
  Herbicidal effects Barnyard grass: 4 (Growth inhibition rate; 71 to 90%)
[3]; chemical dosage 20 g/a
  Crop injury against transplanted rice: 0 (Growth inhibition rate; 0 to 10%)
